Assay results from ChEMBL document CHEMBL4725459, “Novel Pyrazoles as Hemoglobin Modulators for Treating Sickle Cell Disease” (ACS Med Chem Lett, 2020).

Assays:
[1] = Stabilization of purified human sickle cell hemoglobin at its oxygenated (R) state assessed as reduction in conversion from oxygenated (R, relaxed state) to deoxygenated (T, tense state) under deoxygenating conditions
[2] = Binding affinity to purified human sickle cell hemoglobin by SPR assay

| SMILES | IC50 [1] | Kd [2] |
| --- | --- | --- |
| CC(=O)c1nc2[nH]ncc2cc1-n1cccn1 | 3.76 µM | 0.036 µM |
| C[C@H](Oc1cc2cc(F)ccc2nc1N)c1cc(CCC(=O)O)ccc1-n1cccn1 | 3.6 µM | 0.188 µM |
| C[C@H](Oc1cc2cc(F)ccc2nc1N)c1cc(OCC(=O)O)ccc1-n1cccn1 | 3.89 µM | 0.063 µM |

Further lines, with some results ahead:

| IC50 [1] | SMILES | Kd [2] |
| --- | --- | --- |
| 3.93 µM | C[C@H](Oc1cc2cc(C(N)=O)cc(F)c2nc1N)c1ncc(F)cc1-n1cccn1 | 0.068 µM |
| 3.62 µM | C[C@H](Oc1cc2cc(F)cc(F)c2nc1N)c1ncc(F)cc1-n1cccn1 | 0.045 µM |
| 3.83 µM | C[C@H](Oc1cc2cc(F)ccc2nc1N)c1nc(OCCO)ccc1-n1cccn1 | 0.044 µM |
